These results are taken from patent EP0658109B1, “METALLO PORPHYRIN COMPOSITIONS” (priority 1992, dated 1994).

Like-named read-outs stand apart in the source and are kept apart here.

A short description of data set [1]: MTT cell viability assay (cytotoxicity). It counts as cell-based, monkey. Conditions: monkey, cytotoxicity towards COS A6 cells cultured in the absence of FCS, read-out: LD50 (the source's name). An excerpt: (§1) Ex vivo Assay of HIV-1 Polyprotein Processing. COS A6 cells were the result of stable integration of the vector HIV-gpt by transfection of COS-7 cells. This SV40-based vector consists of the HIV-1 HXB2 strain proviral genome where the gp160 sequences were replaced by the […] (gpt) gene. Following transfection, the cells were placed under selection for gpt expression by adding mycophenolic acid to the media. Surviving cells were later cloned and assayed for expression of gag p24 protein by ELISA and Western blots of culture supernatants and whole cell extracts. The cloned COS A6 cell line was maintained in DME H21 supplemented with 10% dialyzed and refiltered fetal calf serum (FCS), antibiotics (100 U/ml penicillin G, 100 µg/ml streptomycin sulfate), hypoxanthine (14 µg/ml), xanthine (250 µg/ml), and mycophenolic acid (25 µg/ml), at 37°C and 5% CO2.
(§2) MTT Cell Viability Assay. Cell survival was assessed by a quantitative colorimetric assay. The tetrazolium salt 3-(4,5-dimethylthiazol-2-yl)2,5-diphenyltetrazolium bromide (MTT) is cleaved by dehydrogenases in active mitochondria of living cells to yield a change in color from yellow to purple. To obtain the LD50 values for each compound, the concentration was determined at which the absorbance at 550-570 nm was half of that for the untreated cells. Compounds were tested in duplicate, in serial dilutions generally ranging from 10-250 µM concentrations in the presence of 0-0.1% DMSO. MTT assays were carried out in both the presence and absence of 10% FCS.
(§3) Cytotoxicity of compounds (LD50) and their ability to inhibit capsid protein processing ex vivo during 4 hour incubations (IC50) were studied. A plasmid which encodes the HIV-1 proviral genome, with the exception of the […] envelope protein, was stably introduced into the monkey cell line COS 7. Cloned progeny, COS A6 cells, constitutively release viral capsids into the media. Inhibition of polyprotein processing was determined by measuring the amount of p24 present in the viral capsid samples with an ELISA assay. The decrease in the amount of detectable p24 antigen correlated with a specific inhibition of HIV PR activity, judged by the accumulation of capsid precursor in conjunction with a disappearance of the p24 mature protein band in Western blots. The MTT stain assay was used to obtain LD50 values for all the compounds tested.
(In general: Formazan colour is commonly taken as a measure of viable cells.)

Data set [2] concerns the target T1, Recombinant HIV-2 protease (HIV-2 PR) (Human immunodeficiency virus type 2 subtype A, UniProt P04584).
T1 construct: Recombinant HIV-2 protease (HIV-2 PR) and SIV protease (SIV PR) were expressed and purified; made in house; host or cells: strain X90 (E. coli by own knowledge)
The data set can be described thus: HIV-2 protease inhibition, discontinuous HPLC assay of decapeptide cleavage. It counts as biochemical. The protocol: (§4) Recombinant Protein Preparation. Recombinant HIV-1 protease (HIV-1 PR) was expressed and purified from E. coli strain D1210 using the pSOD/PR179 vector. Recombinant HIV-2 protease (HIV-2 PR) and SIV protease (SIV PR) were expressed and purified from strain X90 using pTacTac vectors.
(§5) Enzyme Assays. HIV-1, HIV-2, and SIV PRs were assayed against the decapeptide corresponding to the HIV-1 PR C-terminal autoprocessing site, by means of a discontinuous HPLC assay. Recombinant human renin and porcine pepsin were obtained and assayed using standard conditions. Bovine cathepsin D and its chromogenic substrate were purchased from Sigma. The enzyme was assayed by standard methods.
(§6) Stock solutions of the porphyrin derivatives (1 µ M-10mM) in 100% DMSO were used in IC50 determinations. Since many of the derivatives were insoluble in buffer alone, including the free acid forms of the carborane compounds, DMSO was used to increase solubility and allow a comparison of the binding affinity. Compounds were added to buffer solutions containing additional DMSO to give a final concentration of 5%. Control reactions contained 5% DMSO only. Enzymes were preincubated with inhibitor for 1 minute at 25°C, followed by addition of substrate to initiate the reaction. As earlier noted, assays were also carried out in the absence of DMSO, when possible. Dipotassium salts of several of the inhibitors were soluble in aqueous solution and were assayed in the absence of DMSO for K1 and IC50 determinations.

Another data set has as its target T2, SIV protease (SIV PR) (Simian immunodeficiency virus, UniProt P05896).
T2 construct: SIV protease (SIV PR) were expressed and purified from strain X90; made in house; host or cells: strain X90 (E. coli by own knowledge)
The data set is described as follows: SIV protease inhibition, discontinuous HPLC assay of decapeptide cleavage. In kind it is biochemical. Conditions: absence of DMSO. As to the method: as §4, §5
as §6, with “Dipotassium salts of several of the inhibitors were soluble in aqueous solution and were assayed in the absence of DMSO for K1 and IC50 determinations.” left out

A further data set deals with T3, Bovine cathepsin D (Bos taurus, UniProt P80209).
T3 construct: purchased Sigma
T3 sequence (P80209 45-390): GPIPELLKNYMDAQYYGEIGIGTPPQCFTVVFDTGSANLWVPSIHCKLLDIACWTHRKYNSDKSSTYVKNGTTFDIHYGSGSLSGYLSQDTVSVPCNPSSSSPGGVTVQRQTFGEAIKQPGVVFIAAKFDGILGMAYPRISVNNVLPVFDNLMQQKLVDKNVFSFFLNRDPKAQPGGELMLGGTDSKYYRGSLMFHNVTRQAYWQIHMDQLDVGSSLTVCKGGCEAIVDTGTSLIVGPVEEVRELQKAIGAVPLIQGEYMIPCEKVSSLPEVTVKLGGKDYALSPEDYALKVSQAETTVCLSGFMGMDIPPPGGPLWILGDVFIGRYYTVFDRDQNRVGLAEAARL
The data set is described as follows: Cathepsin D inhibition, chromogenic substrate. In kind it is biochemical. Conditions: absence of DMSO. The protocol:
as §5, §6

The subject of another data set is COS A6 cells. The data set is described as follows: MTT cell viability assay (cytotoxicity). In kind it is cell-based, monkey. Conditions: cytotoxicity towards COS A6 cells cultured in the absence of FCS, read-out: LD50 (the source's name).
Text: as §1, §2, §3

The target in data set [3] is T4, Recombinant HIV-1 protease (HIV-1 PR) (Human immunodeficiency virus type 1 group M subtype B, UniProt P03369).
T4 construct: Recombinant HIV-1 protease (HIV-1 PR) was expressed and purified; made in house; host or cells: E. coli strain D1210
It counts as biochemical. The protocol:
as §4, §5
Stock solutions of the porphyrin derivatives (1 µ M-10mM) in 100% DMSO were used in IC50 determinations. […] Control reactions contained 5% DMSO only. Enzymes were preincubated with inhibitor for 1 minute at 25°C, followed by addition of substrate to initiate the reaction. As earlier noted, assays were also carried out in the absence of DMSO, when possible.
Figure 1 is a Dixon plot of inventive embodiment 5 (which is a representative example of the other embodiments) in inhibition of HIV-1 protease, where purified HIV-1 protease (6 x 10^-1 mg/ml) was incubated with the inventive inhibitor in 50 mM sodium acetate buffer, pH 5.5, containing 1 mM dithiothreitol, 1 mM EDTA, and 1 M NaCl. […] The assay solutions were incubated for 30-45 minutes at 37° and enzyme activity was determined by quantitation of the hydrolysis products on HPLC.

In a further data set the target is T5, Recombinant human renin (Homo sapiens, UniProt P00797).
T5 sequence (P00797 67-406): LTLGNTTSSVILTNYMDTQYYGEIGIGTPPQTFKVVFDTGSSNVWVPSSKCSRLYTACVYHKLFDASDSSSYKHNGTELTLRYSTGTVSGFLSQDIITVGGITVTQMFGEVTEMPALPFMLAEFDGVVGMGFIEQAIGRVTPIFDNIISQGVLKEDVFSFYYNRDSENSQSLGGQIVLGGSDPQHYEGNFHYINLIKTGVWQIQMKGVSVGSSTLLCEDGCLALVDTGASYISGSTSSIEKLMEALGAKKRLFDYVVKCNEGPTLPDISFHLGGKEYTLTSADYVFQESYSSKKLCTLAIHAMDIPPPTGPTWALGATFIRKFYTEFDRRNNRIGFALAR
The data set is described as follows: Renin inhibition, standard conditions. The note with it: absence of DMSO. In kind it is biochemical. As to the method:
as §5, §6

A further data set relates to V79 CHO cells. The data set can be described thus: Colony survival (cytotoxicity). In kind it is cell-based. Conditions: in the presence of FCS, read-out: LD50 (the source's name).
A further data set has as its target porcine pepsin (Sus scrofa, UniProt P00791). The data set can be described thus: Pepsin inhibition, standard conditions. It counts as biochemical. The note with it: absence of DMSO. The protocol:
as §5, §6

The test system of the next data set is C6 glioma. The data set is described as follows: Colony survival (cytotoxicity). In kind it is cell-based. Conditions: in the presence of FCS, read-out: LD50 (the source's name).
The subject of the next data set is mice. The data set can be described thus: Tolerance in mice. In kind it is in vivo. Conditions: doses as high as 200 mg/kg.

T1 sequence (P04584 514-612 limits assumed): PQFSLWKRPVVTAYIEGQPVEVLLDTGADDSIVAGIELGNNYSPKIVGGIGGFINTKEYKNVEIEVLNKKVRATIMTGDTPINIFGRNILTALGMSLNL
T2 sequence (P05896 501-596): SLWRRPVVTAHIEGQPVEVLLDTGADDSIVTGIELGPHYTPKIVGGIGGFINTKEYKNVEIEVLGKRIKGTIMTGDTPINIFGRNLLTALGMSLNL
porcine pepsin, sequence (P00791 60-385): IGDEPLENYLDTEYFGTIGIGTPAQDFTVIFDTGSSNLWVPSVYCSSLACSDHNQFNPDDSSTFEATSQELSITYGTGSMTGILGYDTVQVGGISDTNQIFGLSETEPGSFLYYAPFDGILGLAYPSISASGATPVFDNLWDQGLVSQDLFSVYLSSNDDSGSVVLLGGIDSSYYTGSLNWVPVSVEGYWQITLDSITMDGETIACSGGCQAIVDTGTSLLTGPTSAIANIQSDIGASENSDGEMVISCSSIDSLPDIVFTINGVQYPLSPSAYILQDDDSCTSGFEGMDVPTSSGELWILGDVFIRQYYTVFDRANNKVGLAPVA

For the molecule `CC1=C(C(COC(=O)c2ccc(N(C)C)cc2)OC(=O)c2ccc(N(C)C)cc2)c2cc3nc(cc4[nH]c(cc5[nH]c(cc1n2)c(C)c5CCC(=O)O)c(CCC(=O)O)c4C)C(C(COC(=O)c1ccc(N(C)C)cc1)OC(=O)c1ccc(N(C)C)cc1)=C3C` (centres unmarked) [Comparative Embodiment 9], the CC50 in [1] is over 250 µM.
Same read-out and setting: the same measure for `CC1=C(C(COC(=O)c2ccccc2)OC(=O)c2ccccc2)c2cc3nc(cc4[nH]c(cc5[nH]c(cc1n2)c(C)c5CCC(=O)O)c(CCC(=O)O)c4C)C(C(COC(=O)c1ccccc1)OC(=O)c1ccccc1)=C3C` (centres unmarked) [Comparative Embodiment 10]: 250 µM; for `CC1=C(C(COC(=O)c2ccc3ccccc3c2)OC(=O)c2ccc3ccccc3c2)c2cc3nc(cc4[nH]c(cc5[nH]c(cc1n2)c(C)c5CCC(=O)O)c(CCC(=O)O)c4C)C(C(COC(=O)c1ccc2ccccc2c1)OC(=O)c1ccc2ccccc2c1)=C3C` (centres unmarked) [Comparative Embodiment 11]: 250 µM.
Regarding `CC1=C(C(O)CO)c2cc3nc(cc4[nH]c(cc5[nH]c(cc1n2)c(C)c5CCC(=O)O)c(CCC(=O)O)c4C)C(C(O)CO)=C3C` (centres unmarked) [Comparative Embodiment 12], the CC50 in data set [1] is 250 µM.
By IC50 is commonly meant the midpoint of a concentration-inhibition curve. “tetra-carborane carboxylate ester of 2,4-Di(α,β-dihydroxyethyl)deuteroporphyrin (IX) [Inventive Embodiment 1]”: the “concentrations readily prepared in water (water solubility)” value is 100 to 200 mg/mL. For the same molecule, the IC50 in data set [2] (absence of DMSO, dipotassium salts in aqueous solution, read-out: IC50 HIV-2 PR) was found to be 0.23 µM. For the same molecule, in [2] (in the presence of 5% DMSO, read-out: IC50 in vitro HIV-2), the IC50 amounted to 0.7 µM. In addition, in data set [2] (matches the series without DMSO, read-out: IC50 HIV-2 protease), the IC50 amounted to 0.23 µM. In addition, the IC50 against SIV protease (SIV PR) was 0.25 µM. Also, at Bovine cathepsin D, the midpoint of inhibition, the IC50, lay at 10 µM. For the same molecule, in the data set on COS A6 cells, the CC50 was determined as 25 µM. In addition, the IC50 in [3] (absence of DMSO, dipotassium salts in aqueous solution, read-out: IC50 HIV-1 PR) stood at 0.05 µM. The “fold more effective for HIV-1 PR than for HIV-2 and SIV PRs” value in [3] (from Table 4, absence of DMSO) was “approximately 5 fold”. Further, the “fold more inhibitory for HIV-1 PR compared to cellular aspartyl proteases” value in data set [3] (from Table 4, absence of DMSO, listed as Inventive embodiment 1) is “at least 60 fold”. Moreover, the “fold more inhibitory for HIV-1 PR compared to cellular aspartyl proteases” value in data set [3] (from Table 4, absence of DMSO, listed as inventive embodiment 1) was “at least a sixty-fold”. In addition, the IC50 in data set [3] (in the presence of 5% DMSO, read-out: IC50 in vitro HIV-1) was 0.185 µM. Further, in data set [3] (incubation with 0.1% FCS, 50 nM inhibitor), the “decrease of inhibition of HIV-1 PR by fetal calf serum” value is recorded as “more than 50%”. Also, the IC50 in data set [3] (matches the series without DMSO, read-out: IC50 HIV-1 protease) worked out at 0.05 µM. The IC50 on Recombinant human renin is 3 µM. In the data set with V79 CHO cells, the CC50 is at least 150 µM. For the same molecule, half-maximal inhibition at porcine pepsin (IC50) required 4 µM. Moreover, the CC50 in the data set with C6 glioma is 100 to 125 µM. Further, in the data set with mice, the “tolerance in mice (morbidity or mortality)” value is reported as “no apparent signs of morbidity or mortality”.
